Measured values: patent US20170044104A1, “NEW PESTICIDAL COMPOUNDS AND USES” (BAYER CROPSCIENCE AG, priority 2013, published 2017)

Legend:
[1] = test system: Dirofilaria immitis microfilariae; assay: microbe, parasite or virus in culture; conditions: 72 h, read-out: EC50 (reduction of motility)
[2] = test system: Cooperia curticei; assay: Cooperia curticei (COOPCU) larval mortality assay; conditions: 120 h, application rate 20 ppm, after 5 days, read-out: activity (percentage of larval mortality)
Experimental: (§1) Solvent: dimethyl sulfoxide
(§2) To produce a suitable preparation of active compound, 10 mg of active compound are dissolved in 0.5 ml solvent, and the concentrate is diluted with “Ringer's solution” to the desired concentration.
Approximately 40 nematode larvae (Cooperia curticei) are transferred into a test tube containing the compound solution.
After 5 days percentage of larval mortality is recorded. 100% efficacy means all larvae are killed; 0% efficacy means no larvae are killed.

[3] = test system: Meloidogyne incognita; assay: Meloidogyne incognita (MELGIN) gall formation assay; assay type: in vivo; conditions: 336 h, read-out: nematicidal activity (percentage of gall formation)
Experimental: Solvent: 125.0 parts by weight of acetone
To produce a suitable preparation of active compound, 1 part by weight of active compound is mixed with the stated amount of solvent, and the concentrate is diluted with water to the desired concentration.
Vessels are filled with sand, a solution of the active ingredient, a suspension containing eggs and larvae of the southern root-knot nematode (Meloidogyne incognita) and salad seeds. The salad seeds germinate and the seedlings grow. Galls develop in the roots.
After 14 days the nematicidal activity is determined on the basis of the percentage of gall formation. 100% means no galls were found and 0% means the number of galls found on the roots of the treated plants was equal to that in untreated control plants.

[4] = test system: Haemonchus contortus; assay: Haemonchus contortus (HAEMCO) larval mortality assay; conditions: 120 h; for mortality at 20 ppm: application rate 20 ppm, after 5 days, read-out: activity (percentage of larval mortality); for Emax at 0.8 ppm / Emax at 4 ppm / Emax at 20 ppm: comparative test, 5 dat, read-out: % Efficacy
Experimental: as §1, §2
Approximately 40 larvae of the red stomach worm (Haemonchus contortus) are transferred into a test tube containing compound solution.
After 5 days percentage of larval mortality are recorded. 100% efficacy means all larvae are killed, 0% efficacy means no larvae are killed.

[5] = test system: Nippostrongylus brasiliensis; assay: Nippostrongylus brasiliensis (NIPOBR) assay, acetylcholine esterase readout; conditions: 10 ppm (10 μg/ml), adult worms, read-out: activity (reduction of AChE compared to negative control)
Experimental: Adult Nippostrongylus brasiliensis were washed with saline buffer containing 100 U/ml penicillin, 0.1 mg/ml streptomycin and 2.5 μg/ml amphotericin B. Test compounds were dissolved in DMSO and worms were incubated in medium in a final concentration of 10 μg/ml (10 ppm). An aliquot of the medium was used to determine the acetylcholine esterase activity in comparison to a negative control. The principle of measuring acetylcholine esterase as readout for anthelmintic activity was described in Rapson et al (1986) and Rapson et al (1987).

| Compound | EC50 [1] | mortality at 20 ppm [2] | pest or weed control at 20 ppm [3] | mortality at 20 ppm [4] | inhibition at 10 ppm [5] | Emax at 0.8 ppm [4] | Emax at 4 ppm [4] | Emax at 20 ppm [4] |
| --- | --- | --- | --- | --- | --- | --- | --- | --- |
| O=C(NCC(F)c1ccc(-c2ccc(C(F)(F)F)nc2)cc1Cl)c1ccccc1C(F)(F)F (stereo not drawn) [Example 1-70] | < 5 µg/mL | 100% | 100% | 90% | ≥ 60% | – | – | – |
| O=C(NCC(F)c1ccc(-c2ccc(Cl)nc2)cc1Cl)c1ccccc1C(F)(F)F (stereo not drawn) [Example 1-73, N-{2-[2-chloro-4-(6-chloropyridin-3-yl)phenyl]-2-fluoroethyl}-2-(trifluoromethyl) benzamide] | < 5 µg/mL | 100% | 100% | 100% | ≥ 60% | – | – | – |
| O=C(NCC(F)c1ccc(-c2ccc(F)nc2)cc1Cl)c1ccccc1C(F)(F)F (stereo not drawn) [Example 1-74] | < 5 µg/mL | 100% | 90% | 100% | ≥ 60% | 100% | 100% | 100% |
| O=C(NCC(F)c1ccc(-c2cncc(Cl)c2)cc1Cl)c1ccccc1C(F)(F)F (stereo not drawn) [Example 1-77] | < 5 µg/mL | 100% | – | 100% | ≥ 60% | – | – | – |
| O=C(NCC(F)c1ccc(-c2ccnc(F)c2)cc1Cl)c1ccccc1C(F)(F)F (stereo not drawn) [Example 1-78] | < 5 µg/mL | 100% | – | 100% | ≥ 60% | – | – | – |
| O=C(NCC(F)(F)c1ccc(-n2cc(C(F)(F)F)cn2)cc1Cl)c1cccnc1C(F)(F)F [Example 1-89] | < 5 µg/mL | 100% | 100% | 100% | ≥ 60% | – | – | – |
| O=C(NCC(F)(F)c1ccc(-c2ccc(F)nc2)cc1Cl)c1ccccc1C(F)(F)F [Example 1-93, N-[2-[2-chloro-4-(6-fluoro-3-pyridyl)phenyl]-2,2-difluoro-ethyl]-2-(trifluoromethyl)benzamide] | < 5 µg/mL | 100% | 100% | 100% | ≥ 60% | 100% | 100% | 100% |
| CC(F)(CNC(=O)c1ccccc1Cl)c1ccc(-c2cncc(F)c2)cc1Cl (stereo not drawn) [Example 1-99] | < 5 µg/mL | 100% | – | 100% | ≥ 60% | – | – | – |
| CC(F)(CNC(=O)c1ccccc1Br)c1ccc(-c2cncc(F)c2)cc1Cl (stereo not drawn) [Example 1-100] | < 5 µg/mL | 100% | – | 100% | ≥ 60% | – | – | – |
| O=C(NCC(F)(F)c1ccc(-c2ccc(F)nc2)cc1F)c1ccccc1C(F)(F)F [Example 1-106] | – | 100% | 90% | 100% | ≥ 60% | – | – | – |
